Experimental findings from ChEMBL document CHEMBL4219115, “Synthesis and evaluation of 4',5'-dihydrospiro[piperidine-4,7'-thieno[2,3-c]pyran] analogues against both active and dormant Mycobacterium tuberculosis” (Bioorg Med Chem, 2018) are described below.

In data set [1] the test system is Mycobacterium tuberculosis. Description: Antimycobacterial activity against Mycobacterium tuberculosis H37Rv measured after 6 days by resazurin assay. It is filed as functional. The settings on record: 144 h. A general note: Alamar Blue is a resazurin reagent that responds to reducing activity.
In data set [2] the test system is Mycobacterium tuberculosis. In words: Antimycobacterial activity against active form of Mycobacterium tuberculosis H37Rv measured after 7 days by alamar blue assay. The format is functional. The settings on record: 168 h.
The subject of data set [3] is RAW264.7. In words: Cytotoxicity against mouse RAW264.7 cells assessed as reduction in cell viability at 50 ug/ml after 48 hrs by MTT assay. It is filed as cell-based. The settings on record: raw264.7, 48 h. In general terms: Formazan colour is commonly taken as a measure of viable cells.
The test system of data set [4] is Mycobacterium tuberculosis. Description: Antimycobacterial activity against nutrient starved dormant form of Mycobacterium tuberculosis H37Rv assessed as log reduction in bacterial count at 10 ug/ml measured after 7 days by […] relative to control. The format is functional.
In data set [5] the target is T1, L-lysine-epsilon aminotransferase (Mycobacterium tuberculosis, UniProt P9WQ77).
T1 sequence (P9WQ77 whole entry): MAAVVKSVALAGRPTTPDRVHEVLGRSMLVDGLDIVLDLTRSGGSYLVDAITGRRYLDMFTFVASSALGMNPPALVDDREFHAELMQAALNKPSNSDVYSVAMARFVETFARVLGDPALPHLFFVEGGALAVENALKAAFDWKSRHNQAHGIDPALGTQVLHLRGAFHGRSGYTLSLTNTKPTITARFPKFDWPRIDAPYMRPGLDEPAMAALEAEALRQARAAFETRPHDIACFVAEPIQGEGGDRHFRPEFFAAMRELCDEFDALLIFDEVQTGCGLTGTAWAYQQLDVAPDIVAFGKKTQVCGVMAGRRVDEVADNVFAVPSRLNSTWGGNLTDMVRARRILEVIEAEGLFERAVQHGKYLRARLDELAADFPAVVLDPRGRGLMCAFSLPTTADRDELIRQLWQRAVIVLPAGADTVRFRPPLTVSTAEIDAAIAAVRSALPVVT
Description: Inhibition of Mycobacterium tuberculosis LAT using L-lysine and alpha-ketoglutaric acid as substrate by spectrophotometric analysis.

pIC50: −log10 of the molar value. Converted amounts (≈) assume the structure as drawn.

Usually MIC stands for the smallest concentration in the dilution series that meets the test's criterion for growth inhibition. By pIC50 is commonly meant −log10 of the IC50, conventionally taken in molar units. Low readings indicate a large IC50, high ones a small IC50.

As for `c1cc2c(s1)CCOC21CCN(Cc2ccc3c(c2)OCCO3)CC1`, in data set [1], the MIC was 0.38 µM (≈ 0.136 µg/mL).
For `c1ccc(CN2CCC3(CC2)OCCc2ccsc23)cc1`, inhibition of growth in data set [2] (MIC) required 83.5 µM (≈ 25 µg/mL).
Compound `O=C(c1ccccc1)N1CCC2(CC1)OCCc1ccsc12` showed an MIC in data set [2] of 79.8 µM (≈ 25 µg/mL).
As to `COc1ccc(S(=O)(=O)N2CCC3(CC2)OCCc2ccsc23)cc1`, in data set [2], the lowest concentration to inhibit growth (MIC) was 8.23 µM (≈ 3.12 µg/mL). In data set [3], the Activity is 12.32%. Also, the “log(activity)” value in data set [4] came out at 2.8. The compound further showed a pIC50 in data set [5] of 5.98.
On to `Clc1ccc(CN2CCC3(CC2)OCCc2ccsc23)c(Cl)c1`, for which the lowest concentration to inhibit growth in data set [2] (MIC) was 33.9 µM (≈ 12.5 µg/mL).
As to `Cc1ccc(S(=O)(=O)N2CCC3(CC2)OCCc2ccsc23)cc1`, the lowest concentration to inhibit growth in data set [2] (MIC) was 8.59 µM (≈ 3.12 µg/mL). In addition, the Activity in data set [3] worked out at 22.16%.
As for `Fc1ccc(CN2CCC3(CC2)OCCc2ccsc23)c(F)c1`, the MIC in data set [2] came to 37.3 µM (≈ 12.5 µg/mL).
Still for that read-out and setting: the value for `O=S(=O)(c1ccc(Cl)cc1Cl)N1CCC2(CC1)OCCc1ccsc12` was 29.9 µM (≈ 12.5 µg/mL); that for `O=S(=O)(c1ccc(F)cc1)N1CCC2(CC1)OCCc1ccsc12` was 34 µM (≈ 12.5 µg/mL).
For `COc1ccc(C(=O)N2CCC3(CC2)OCCc2ccsc23)cc1`, in data set [2], the MIC was 9.09 µM (≈ 3.12 µg/mL). Moreover, the Activity in data set [3] is on record as 14.59%.
The matching figures for `Cc1ccc(C(=O)N2CCC3(CC2)OCCc2ccsc23)cc1`: 19.1 µM (≈ 6.25 µg/mL) and 23.16%.
Taken in the same sequence, the figures for `O=C(c1ccc(F)cc1)N1CCC2(CC1)OCCc1ccsc12` were 18.9 µM (≈ 6.25 µg/mL) and 18.98%.
Take `O=S(=O)(c1ccc(Cl)cc1)N1CCC2(CC1)OCCc1ccsc12`: the MIC in data set [2] turned out to be 65.1 µM (≈ 25 µg/mL).
`Cc1ccc(CN2CCC3(CC2)OCCc2ccsc23)cc1` had an MIC in data set [2] of 79.8 µM (≈ 25 µg/mL).
`Clc1ccc(CN2CCC3(CC2)OCCc2ccsc23)cc1` yielded an MIC in data set [2] of 9.35 µM (≈ 3.12 µg/mL). Further, in data set [3], the Activity worked out at 26.54%. In data set [4], the “log(activity)” value was 2.4. In data set [5], this compound gave a negative-log IC50 (pIC50) of 5.17.
In data set [2], `Fc1ccc(CN2CCC3(CC2)OCCc2ccsc23)cc1` registered an MIC of 19.7 µM (≈ 6.25 µg/mL). For the same compound, in data set [3], the Activity amounted to 21.67%.
With `O=C(c1ccc(F)cc1F)N1CCC2(CC1)OCCc1ccsc12`, the MIC in data set [2] was 8.94 µM (≈ 3.12 µg/mL). Further, the Activity in data set [3] turned out to be 34.06%. In addition, the “log(activity)” value in data set [4] amounted to 2.7. In data set [5], the pIC50 is 5.46.
Compound `COc1ccc(CN2CCC3(CC2)OCCc2ccsc23)cc1` came in with an MIC in data set [2] of 23.1 µM (≈ 7.62 µg/mL).
Consider `O=S(=O)(c1ccccc1)N1CCC2(CC1)OCCc1ccsc12`, for which the MIC in data set [2] is 71.5 µM (≈ 25 µg/mL).
On the same count and under the same terms, the value for `O=C(c1ccc(Cl)cc1)N1CCC2(CC1)OCCc1ccsc12` was 71.9 µM (≈ 25 µg/mL).
Turning to `O=S(=O)(c1ccc(F)cc1F)N1CCC2(CC1)OCCc1ccsc12`, the MIC in data set [2] was found to be 16.2 µM (≈ 6.25 µg/mL). Besides, the Activity in data set [3] is given as 31.08%.
Regarding `O=C(c1ccc(Cl)cc1Cl)N1CCC2(CC1)OCCc1ccsc12`, in data set [2], the lowest concentration to inhibit growth (MIC) was 32.7 µM (≈ 12.5 µg/mL).
As for `CC[C@@H](CO)NCCN[C@@H](CC)CO` [ETHAMBUTOL], the MIC in data set [2] came to 9.84 µM (≈ 2.01 µg/mL).
In the case of `NNC(=O)c1ccncc1` [ISONIAZID], in data set [2], the MIC came to 0.66 µM (≈ 0.0905 µg/mL). Also, the “log(activity)” value in data set [4] is on record as 1.7.
The compound `CC1COc2c(N3CCN(C)CC3)c(F)cc3c(=O)c(C(=O)O)cn1c23` (configuration not stated) [OFLOXACIN] returned an MIC in data set [2] of 2.16 µM (≈ 0.781 µg/mL).
In the case of `CO[C@H]1/C=C/O[C@@]2(C)Oc3c(C)c(O)c4c(O)c(c(/C=N/N5CCN(C)CC5)c(O)c4c3C2=O)NC(=O)/C(C)=C\C=C\[C@H](C)[C@H](O)[C@@H](C)[C@@H](O)[C@@H](C)[C@H](OC(C)=O)[C@@H]1C` [RIFAMPIN], the “log(activity)” value in data set [4] is given as 2.
